Source: PubChem BioAssay (NCI)
Values joined by “and” are separate entries in the source; they are usually repeats but may differ in a detail not shown here. Equal entries are not always repeated.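 Test compounds were applied to cells in 96-well plates for 48 hours at 5 doses. The concentration for 50% growth inhibition is given as GI50. Definition used: TGI = concentration required for complete inhibition of growth.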

Tests used:
Assay in all cases: NCI tumour cell line growth inhibition, 48 h
[1] = test system: SK-MEL-28 melanoma
[2] = test system: SW-620 colon
[3] = test system: A498 renal
[4] = test system: UO-31 renal
[5] = test system: HCT-116 colon
[6] = test system: MDA-MB-435
[7] = test system: ACHN renal
[8] = test system: SNB-75 CNS
[9] = test system: CAKI-1 renal
[10] = test system: DU-145 prostate
[11] = test system: HCT-15 colon
[12] = test system: OVCAR-5 ovarian
[13] = test system: MALME-3M melanoma
[14] = test system: HOP-92 NSCLC
[15] = test system: UACC-257 melanoma
[16] = test system: SF-295 CNS
[17] = test system: RXF 393 renal
[18] = test system: M14 melanoma
[19] = test system: RPMI-8226 leukemia
[20] = test system: HT29 colon
[21] = test system: OVCAR-3 ovarian
[22] = test system: HS 578T breast
[23] = test system: SK-OV-3 ovarian
[24] = test system: OVCAR-4 ovarian
[25] = test system: HCC-2998 colon
[26] = test system: U251 CNS
[27] = test system: SNB-19 CNS
[28] = test system: MCF7 breast
[29] = test system: LOX IMVI melanoma
[30] = test system: NCI-H226 lung
[31] = test system: BT-549 breast
[32] = test system: K-562 leukemia
[33] = test system: T-47D breast
[34] = test system: NCI-H23 lung
[35] = test system: NCI-H460 lung
[36] = test system: UACC-62 melanoma
[37] = test system: SK-MEL-2 melanoma
[38] = test system: PC-3 prostate
[39] = test system: NCI-H522 lung
[40] = test system: EKVX NSCLC
[41] = test system: KM12 colon

## CN1/C(=C/C=C/c2n(Cc3ccc4ccccc4c3)c(Cl)c(Cl)[n+]2Cc2ccc3ccccc3c2)Oc2ccccc21
[1]
  GI50: 505 nM
  TGI: 1750 nM
[2]
  GI50: 294 nM
  TGI: 1150 nM
[3]
  GI50: 198 nM
  TGI: 756 nM
[4]
  GI50: 1350 nM
  TGI: 2650 nM
[5]
  GI50: 255 nM
  TGI: 1080 nM
[6]
  GI50: 327 nM
  TGI: 1090 nM
[7]
  GI50: 494 nM
  TGI: 1670 nM
[8]
  GI50: 176 nM
  TGI: 731 nM
[9]
  GI50: 553 nM
  TGI: 1830 nM
[10]
  GI50: 403 nM
  TGI: 1540 nM
[11]
  GI50: 1240 nM
  TGI: 2680 nM
[12]
  GI50: 373 nM
  TGI: 1590 nM
[13]
  GI50: 201 nM
  TGI: 625 nM
[14]
  GI50: 212 nM
  TGI: 685 nM
[15]
  GI50: 338 nM
  TGI: 1440 nM

## COc1cccc(/C=C/C(=O)N2CC(CCl)c3c2cc(N)c2ccccc32)c1 (centres undefined)
[16]
  TGI: 9.53 nM
[2]
  TGI: > 100000 nM
[17]
  TGI: 3.42 nM
[3]
  TGI: 34.2 nM
[4]
  TGI: > 100000 nM
[5]
  TGI: 1270 nM
[18]
  TGI: 105 nM
[19]
  TGI: > 100000 nM
[20]
  TGI: 20000 nM
[21]
  TGI: 1720 nM
[22]
  TGI: 40.9 nM
[23]
  TGI: 1160 nM
[7]
  TGI: 2.4 nM
[8]
  TGI: 15.3 nM
[24]
  TGI: 141 nM
[25]
  TGI: 16.6 nM
[26]
  TGI: 370 nM
[27]
  TGI: > 100000 nM
[28]
  TGI: 5.68 nM
[11]
  TGI: 224 nM
[29]
  TGI: 6.5 nM
[30]
  TGI: 42.5 nM
[31]
  GI50: 14.2 nM
[12]
  TGI: 1500 nM
[32]
  TGI: > 100000 nM
[33]
  TGI: 3590 nM
[34]
  TGI: 12.4 nM
[35]
  TGI: 3.25 nM
[36]
  TGI: 22.4 nM
[37]
  TGI: 22.4 nM
[38]
  TGI: 56.2 nM and 132 nM
[39]
  TGI: 8.89 nM
[40]
  TGI: 145 nM and 41.5 nM
[41]
  TGI: 35.2 nM and 161 nM
